For twelve compounds, EC50 results are on record in US20150274664A1 (MERCK SHARP & DOHME CORP., priority 2012, published 2015).

One may read the EC50 as the midpoint of the concentration-response curve. The low end stands for higher potency in that assay, the high end for lower potency in that assay.

This experiment addresses T1, human GPR119 (Homo sapiens, UniProt Q8TDV5).
T1 construct: expressed in transfected cells; host or cells: HEK293
T1 sequence (Q8TDV5 1-335): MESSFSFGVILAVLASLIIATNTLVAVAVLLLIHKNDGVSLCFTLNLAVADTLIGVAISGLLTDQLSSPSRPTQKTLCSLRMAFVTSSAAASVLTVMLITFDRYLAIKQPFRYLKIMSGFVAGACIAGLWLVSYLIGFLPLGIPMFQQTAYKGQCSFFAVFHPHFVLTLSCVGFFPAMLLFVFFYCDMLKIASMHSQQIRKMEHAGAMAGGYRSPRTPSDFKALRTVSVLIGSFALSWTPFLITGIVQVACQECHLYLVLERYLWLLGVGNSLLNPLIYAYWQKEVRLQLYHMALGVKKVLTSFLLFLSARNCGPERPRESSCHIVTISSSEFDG
The experiment in a line: Measurement of GPR119 signaling using LANCE 384-well cAMP kit (LCMP assay). The experiment is classed as cell-based. Conditions: HEK293 cells stably transfected with human GPR119. In a few lines:
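HEK293 cells stably expressing human GPR119, in stimulation buffer at pH 7.4 with 100 μM phosphodiesterase inhibitors, exposed to a 10-point compound dilution (2.5% DMSO final) for 45 min. cAMP measured by LANCE TR-FRET at 665 nm against a cAMP standard curve, normalized between DMSO basal and an internal agonist maximum, with a 4-parameter fit.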
Compound `CC(C)c1noc(N2CCC([C@H]3C[C@@H]3CCOc3ccc(S(C)(=O)=O)c(F)c3)CC2)n1` [Example 87, 5-(4-((1R,2R)-2-(2-(3-fluoro-4-(methylsulfonyl)phenoxy)ethyl)cyclopropyl)piperidin-1-yl)-3-isopropyl-1,2,4-oxadiazole] registered an EC50 of 0.011 µM.

Consider `CC(C)c1noc(N2CCC([C@@H]3C[C@H]3CCOc3ccc(N4CCNC4=O)cc3F)CC2)n1` [Example 88, 1-(3-fluoro-4-(2-((1S,2S)-2-(1-(3-isopropyl-1,2,4-oxadiazol-5-yl)piperidin-4-yl)cyclopropyl)ethoxy)phenyl)imidazolidin-2-one], for which the EC50 came to 0.018 µM.

On to `COCc1noc(N2CCC([C@@H]3C[C@H]3CCOc3ccc(-n4cnnn4)cc3F)CC2)n1` [Example 89, 5-(4-((1S,2S)-2-(2-(2-fluoro-4-(1H-tetrazol-1-yl)phenoxy)ethyl)cyclopropyl)piperidin-1-yl)-3-(methoxymethyl)-1,2,4-oxadiazole], for which a half-maximal effect (EC50) was put at 0.023 µM. This EC50 and that of the compound before are within 1.5-fold of each other.

Regarding `COCc1noc(N2CCC([C@H]3C[C@@H]3CCOc3ccc(-n4cnnn4)cc3F)CC2)n1` [Example 90, 5-(4-((1R,2R)-2-(2-(2-fluoro-4-(1H-tetrazol-1-yl)phenoxy)ethyl)cyclopropyl)piperidin-1-yl)-3-(methoxymethyl)-1,2,4-oxadiazole], it took 0.02 µM to reach a half-maximal effect (EC50).

Consider `COCc1noc(N2CCC([C@@H]3C[C@H]3CCOc3ccc(CC(=O)N4CCC4)c(F)c3)CC2)n1` [Example 91, 1-(azetidin-1-yl)-2-(2-fluoro-4-(2-((1S,2S)-2-(1-(3-(methoxymethyl)-1,2,4-oxadiazol-5-yl)piperidin-4-yl)cyclopropyl)ethoxy)phenyl)ethanone], for which a half-maximal effect (EC50) was put at 0.019 µM.

`CCS(=O)(=O)c1ccc(OCC[C@H]2C[C@@H]2C2CCN(c3nc(C(C)C)no3)CC2)c(F)c1` [Example 92, 5-(4-((1R,2R)-2-(2-(4-(ethylsulfonyl)-2-fluorophenoxy)ethyl)cyclopropyl)piperidin-1-yl)-3-isopropyl-1,2,4-oxadiazole] yielded a concentration for a half-maximal effect (EC50) of 0.013 µM.

Compound `COCc1noc(N2CCC([C@H]3C[C@@H]3CCOc3ccc(CC(=O)N(C)C)c(F)c3)CC2)n1` [Example 93, 2-(2-fluoro-4-(2-((1R,2R)-2-(1-(3-(methoxymethyl)-1,2,4-oxadiazol-5-yl)piperidin-4-yl)cyclopropyl)ethoxy)phenyl)-N,N-dimethylacetamide] yielded a concentration for a half-maximal effect (EC50) of 0.018 µM.

As for `CC1(OC(=O)N2CCC([C@@H]3C[C@H]3CCOc3ccc(S(C)(=O)=O)c(F)c3)CC2)CC1` [Example 94, 1-methylcyclopropyl 4-((1S,2S)-2-(2-(3-fluoro-4-(methylsulfonyl)phenoxy)ethyl)cyclopropyl)piperidine-1-carboxylate], the EC50 amounted to 0.023 µM.

`CC1(OC(=O)N2CCC([C@H]3C[C@@H]3CCOc3ccc(CC(=O)N4CCC4)c(F)c3)CC2)CC1` [Example 95, 1-methylcyclopropyl 4-((1R,2R)-2-(2-(4-(2-(azetidin-1-yl)-2-oxoethyl)-3-fluorophenoxy)ethyl)cyclopropyl)piperidine-1-carboxylate] came in with an EC50 of 0.0026 µM. This EC50 lies about 8.8-fold lower than the previous one.

In the case of `CC1(OC(=O)N2CCC([C@@H]3C[C@H]3CCOc3ccc(-n4cnnn4)cc3F)CC2)CC1` [Example 96, 1-methylcyclopropyl 4-((1S,2S)-2-(2-(2-fluoro-4-(1H-tetrazol-1-yl)phenoxy)ethyl)cyclopropyl)piperidine-1-carboxylate], it took 0.0082 µM to reach a half-maximal effect (EC50). Against the preceding compound, the EC50 is about 3.2-fold higher.

In turn, `CC1(OC(=O)N2CCC([C@@H]3C[C@H]3CCOc3ccc(CC(=O)N4CCC4)c(F)c3)CC2)CC1` [Example 97, 1-methylcyclopropyl 4-((1S,2S)-2-(2-(4-(2-(azetidin-1-yl)-2-oxoethyl)-3-fluorophenoxy)ethyl)cyclopropyl)piperidine-1-carboxylate] returned an EC50 of 0.0042 µM.

In turn, `CC1(OC(=O)N2CCC([C@H]3C[C@@H]3CCOc3ccc(CC(=O)N4CCC4)cc3F)CC2)CC1` [Example 98, 1-methylcyclopropyl 4-((1R,2R)-2-(2-(4-(2-(azetidin-1-yl)-2-oxoethyl)-2-fluorophenoxy)ethyl)cyclopropyl)piperidine-1-carboxylate] showed an EC50 of 0.0063 µM.
